Source: publication PMC3548707, “Biocatalytic potential of laccase-like multicopper oxidases from Aspergillus niger” (Microbial Cell Factories, 2012)
Like-named read-outs stand apart in the source and are kept apart here.

Columns and labels:
McoG [1] = conditions: read-out: ABTS; pH 5.0; 0.125 to 15 mM substrate
McoB [2] = conditions: read-out: ABTS; pH 5.0; 0.125 to 15 mM substrate
McoG [3] = tested on: T1, McoG; assay: initial oxidation rate at […] nm, Michaelis-Menten fit; assay type: biochemical, Aspergillus niger; conditions: pH 5.0; 0.125 to 15 mM substrate; fit with substrate inhibition; read-out: DMPPDA
T1 construct: secreted, homologously expressed in A. niger N593, purified from culture supernatant; theoretical ~65 kDa, ~80 kDa SDS-PAGE, ~99 kDa gel filtration; monomer; blue

McoB [4] = target: T2, McoB; assay: as above; assay type: biochemical, Aspergillus niger; conditions: substrate inhibition; second site; pH 5.0
T2 construct: secreted, homologously expressed in A. niger N593, purified from culture supernatant; theoretical ~63 kDa, ~88 kDa SDS-PAGE, ~96 kDa gel filtration; monomer; yellow

McoB [5] = tested on: T2, McoB; assay: as above; assay type: biochemical, Aspergillus niger; conditions: pH 5.0; 0.125 to 15 mM substrate; fit with substrate inhibition; read-out: DMPPDA
McoA = tested on: T3, McoA; assay: as above; assay type: biochemical, Aspergillus niger; conditions: pH 5.0; 0.125 to 15 mM substrate; read-out: DMPPDA
T3 construct: secreted, homologously expressed in A. niger N593, purified from culture supernatant; theoretical ~64 kDa, ~110 kDa SDS-PAGE, ~120 kDa gel filtration; monomer; blue

McoG [6] = target: T1, McoG; assay: as above; assay type: biochemical, Aspergillus niger; conditions: substrate inhibition; second site; pH 5.0

SMILES: CCn1c(=NN=c2sc3cc(S(=O)(=O)O)ccc3n2CC)sc2cc(S(=O)(=O)O)ccc21 [ABTS]
- Km (McoG [1]): 5600 ± 1000 µM
- Km (McoB [2]): 500 ± 100 µM

SMILES: CN(C)c1ccc(N)cc1 [DMPPDA]
- Km (McoG [3]): 1800 ± 300 µM
- Ki (McoB [4]): 22.4 ± 6.4 mM
- Km (McoB [5]): 400 ± 100 µM
- Km (McoA): 3600 ± 200 µM
- Ki (McoG [6]): 4.6 ± 0.7 mM
